{
  "source": "patent US6683072B1",
  "about": "“Compositions and methods for treatment of irritable bowel syndrome and nonulcer dyspepsia” (Vela Pharmaceuticals, Inc., priority 2003, dated 2004)",
  "test_system": "colonic propulsive motility in mice",
  "assay": "Glass bead test of colonic propulsive motility in mice",
  "settings": "for Expulsion Time (min.) Mean ± SEM: 3 mm glass bead inserted 30 min after dosing, female Swiss Webster mice",
  "data": [
    {"compound": "CN(C)C(=O)C(CCN1CCC(O)(c2ccc(Cl)cc2)CC1)(c1ccccc1)c1ccccc1", "note": "[loperamide]", "values": [
      {"measurement": "Expulsion Time (min.) Mean ± SEM", "setting": "10 mg/kg PO", "value": "26.0 ± 2.6", "unit": "min"},
      {"measurement": "inhibition at 10 mg/kg", "setting": "Mus musculus, po", "value": 81, "unit": "%"}
    ]},
    {"compound": "CN1c2ccccc2C(NCCCCCCC(=O)O)c2ccc(Cl)cc2S1(=O)=O", "note": "(stereo not shown) [tianeptine, 7-[(3-chloro-6,11-dihydro-6-methyl-dibenzo[c,f][1,2]thiazepin-11-yl)amino] heptanoic acid S,S-dioxide]", "values": [
      {"measurement": "Expulsion Time (min.) Mean ± SEM", "setting": "10 mg/kg PO", "value": "16.6 ± 3.6", "unit": "min"},
      {"measurement": "Expulsion Time (min.) Mean ± SEM", "setting": "30 mg/kg PO", "value": "25.7 ± 2.3", "unit": "min"},
      {"measurement": "effect compared with 10 mg/kg dose of loperamide", "setting": "30 mg/kg tianeptine PO", "value": "equivalent in effect to a 10 mg/kg dose of loperamide"},
      {"measurement": "Expulsion Time (min.) Mean ± SEM", "setting": "60 mg/kg PO", "value": "29.8 ± 0.2", "unit": "min"},
      {"measurement": "effect on colonic propulsion (in words)", "setting": "10, 30 and 60 mg/kg PO", "value": "dose-related inhibition of colonic propulsion"},
      {"measurement": "inhibition at 10 mg/kg", "setting": "Mus musculus, po", "value": 38, "unit": "%"},
      {"measurement": "inhibition at 30 mg/kg", "setting": "Mus musculus, po", "value": 80, "unit": "%"},
      {"measurement": "inhibition at 60 mg/kg", "setting": "Mus musculus, po", "value": 98, "unit": "%"}
    ]}
  ]
}
